Laboratory results taken from the supplement of paper PMC11061612.

Columns and labels:
[1] = tested on: ACHN (Kidney Carcinoma); experiment: Bliss excess, mean over the matrix (fraction); higher = more synergy
Outline: (§1)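 After 24 hours at 37°C and 5% CO2 in 1536-well plates, cells in DMEM/F12 or RPMI plus 10% FBS received two-drug dose matrices for 72 hours. Viability came from CellTiter-Glo 2.0 luminescence and was scaled as inhibition, anchored at 0 by vehicle wells and at 1 by blank wells. Combination Emax is taken as the second-highest inhibition in the matrix, and Bliss excess as the observed combination effect less EA + EB − EA·EB, with EA and EB the single-agent effects.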

[2] = tested on: Ca9-22 (Head and Neck Carcinoma); experiment: as above
Outline: as §1

[3] = tested on: Caov-4 (Ovarian Carcinoma); experiment: as above
Outline: as §1

[4] = tested on: EoL-1-cell (Acute Myeloid Leukemia); experiment: as above
Outline: as §1

[5] = tested on: HGC-27 (Gastric Carcinoma); experiment: as above
Outline: as §1

[6] = tested on: HOP-62 (Lung Adenocarcinoma); experiment: as above
Outline: as §1

[7] = tested on: KMOE-2 (Acute Myeloid Leukemia); experiment: as above
Outline: as §1

[8] = tested on: MIA-PaCa-2 (Pancreatic Carcinoma); experiment: as above
Outline: as §1

[9] = tested on: NB69 (Neuroblastoma); experiment: as above
Outline: as §1

[10] = tested on: NCI-H358 (Lung Adenocarcinoma); experiment: as above
Outline: as §1

[11] = tested on: NEC8 (Other Solid Carcinomas); experiment: as above
Outline: as §1

[12] = tested on: NUGC-3 (Gastric Carcinoma); experiment: as above
Outline: as §1

[13] = tested on: PANC-04-03 (Pancreatic Carcinoma); experiment: as above
Outline: as §1

[14] = tested on: PWR-1E (Non-Cancerous); experiment: as above
Outline: as §1

[15] = tested on: SU8686 (Pancreatic Carcinoma); experiment: as above
Outline: as §1

[16] = tested on: TE-1 (Esophageal Squamous Cell Carcinoma); experiment: as above
Outline: as §1

[17] = tested on: TK10 (Kidney Carcinoma); experiment: as above
Outline: as §1

[18] = tested on: VA-ES-BJ (Other Solid Carcinomas); experiment: as above
Outline: as §1

[19] = tested on: YH-13 (Glioblastoma); experiment: as above
Outline: as §1

[20] = tested on: SW13 (Other Solid Carcinomas); experiment: combination Emax (second highest fraction inhibited in the dose matrix, 72 h); higher = more inhibition; extreme values may be limits of the assay
Outline: as §1
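Throughout, for Bliss excess, mean over the matrix: after 72 h of two-drug dosing.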

SMILES	Bliss excess [1]	Bliss excess [2]	Bliss excess [3]	Bliss excess [4]	Bliss excess [5]	Bliss excess [6]	Bliss excess [7]	Bliss excess [8]	Bliss excess [9]	Bliss excess [10]	Bliss excess [11]	Bliss excess [12]	Bliss excess [13]	Bliss excess [14]	Bliss excess [15]	Bliss excess [16]	Bliss excess [17]	Bliss excess [18]	Bliss excess [19]	combination Emax [20]
CN(C)CCCOc1ccc(-c2ccc3ncc4c(c3c2)n(C2CCOCC2)c(=O)n4C)cn1 [AZD0156] + C=CCn1c(=O)c2cnc(Nc3ccc(N4CCN(C)CC4)cc3)nc2n1-c1cccc(C(C)(C)O)n1 [AZD1775] (first compound max 1 µM, partner max 1 µM)	0.022	-0.0042	0.0155	0.0416	0.0088	-0.0403	-0.039	-0.0303	-0.0337	0.0011	0.0183	-0.0369	-0.0836	0.0144	-0.0231	-0.0167	-0.0318	-0.0235	-0.0238	0.147
CN(C)CCCOc1ccc(-c2ccc3ncc4c(c3c2)n(C2CCOCC2)c(=O)n4C)cn1 [AZD0156] + CCN(CCO)CCCOc1ccc2c(Nc3cc(CC(=O)Nc4cccc(F)c4)[nH]n3)ncnc2c1 [AZD2811] (first compound max 1 µM, 7x7, partner max 1 µM)	-0.0232	-0.0056	0.005	-0.0696	-0.0352	-0.046	0.0096	0.0369	-0.0815	-0.0214	0.0233	0.0312	-0.0644	0.0831	-0.0375	-0.0016	-0.0342	0.0248	-0.0119	0.407
CN(C)CCCOc1ccc(-c2ccc3ncc4c(c3c2)n(C2CCOCC2)c(=O)n4C)cn1 [AZD0156] + C[C@@H]1COCCN1C2=NC(=NC(=C2)C3(CC3)[S@](=N)(=O)C)C4=C5C=CNC5=NC=C4 [AZD6738] (first compound max 1 µM, 7x7, partner max 10 µM)	-0.0212	0.0218	-0.0388	0.0408	0.0357	-0.0232	-0.0252	-0.0055	-0.069	0.0219	0.072	0.064	-0.0398	-0.0357	0.0025	-0.0595	0.001	0.0085	0.0019	0.469
CN(C)CCCOc1ccc(-c2ccc3ncc4c(c3c2)n(C2CCOCC2)c(=O)n4C)cn1 [AZD0156] + O=C(c1cc(Cc2n[nH]c(=O)c3ccccc23)ccc1F)N1CCN(C(=O)C2CC2)CC1 [Olaparib] (first compound max 3 µM, partner max 3 µM)	0.0728	0.132	-0.0431	0.237	0.0997	-0.0249	0.0564	-0.038	0.0875	-0.0175	0.104	0.0093	0.0481	0.286	-0.0011	-0.0185	-0.0279	-0.0267	0.067	0.421
C=CCn1c(=O)c2cnc(Nc3ccc(N4CCN(C)CC4)cc3)nc2n1-c1cccc(C(C)(C)O)n1 [AZD1775] + C1CN(CCC1(C(=O)N[C@@H](CCO)C2=CC=C(C=C2)Cl)N)C3=NC=NC4=C3C=CN4 [Capivasertib] (first compound max 3 µM, partner max 3 µM)	-0.0283	-0.0236	-0.0398	-0.0451	0.0785	-0.0872	0.0273	-0.0471	-0.0304	-0.0375	0.013	0.0143	0.083	-0.0165	-0.0619	0.001	-0.124	-0.0037	-0.0309	0.586
C=CCn1c(=O)c2cnc(Nc3ccc(N4CCN(C)CC4)cc3)nc2n1-c1cccc(C(C)(C)O)n1 [AZD1775] + C[C@@H]1COCCN1C2=NC(=NC(=C2)C3(CC3)[S@](=N)(=O)C)C4=C5C=CNC5=NC=C4 [AZD6738] (first compound max 1 µM, partner max 10 µM)	-0.0184	-0.0002	-0.0268	0.0033	0.118	0.0372	0.0308	0.12	0.0351	-0.0219	0.163	0.0683	-0.025	0.0106	-0.0188	-0.0395	-0.0896	0.0568	-0.0142	0.636
C=CCn1c(=O)c2cnc(Nc3ccc(N4CCN(C)CC4)cc3)nc2n1-c1cccc(C(C)(C)O)n1 [AZD1775] + O=C(c1cc(Cc2n[nH]c(=O)c3ccccc23)ccc1F)N1CCN(C(=O)C2CC2)CC1 [Olaparib] (first compound max 1 µM, partner max 10 µM)	-0.0445	-0.0664	-0.0343	0.0165	0.0224	-0.0381	-0.0248	-0.0344	0.0619	-0.0184	0.0029	-0.0798	-0.0407	-0.0175	-0.0399	-0.0834	-0.0601	-0.0424	-0.0513	0.259
Cc1c2c(nn1C)CSCc1cc(n(C)n1)CSc1cc(c3ccccc3c1)OCCCc1c(C(=O)O)n(C)c3c-2c(Cl)ccc13 [AZD5991] + C=CCn1c(=O)c2cnc(Nc3ccc(N4CCN(C)CC4)cc3)nc2n1-c1cccc(C(C)(C)O)n1 [AZD1775] (first compound max 1 µM, partner max 1 µM)	-0.0085	-0.032	-0.0345	0.0097	-0.0061	-0.0288	0.0087	-0.0424	-0.0267	-0.0047	-0.0089	-0.0088	–	-0.0124	0.0175	-0.0456	0.0159	0.0475	-0.0275	0.881
Cc1c2c(nn1C)CSCc1cc(n(C)n1)CSc1cc(c3ccccc3c1)OCCCc1c(C(=O)O)n(C)c3c-2c(Cl)ccc13 [AZD5991] + CC1(C)CCC(CN2CCN(c3ccc(C(=O)NS(=O)(=O)c4ccc(NCC5CCOCC5)c([N+](=O)[O-])c4)c(Oc4cnc5[nH]ccc5c4)c3)CC2)=C(c2ccc(Cl)cc2)C1 [Venetoclax] (first compound max 1 µM, 7x7, partner max 1 µM)	0.0156	-0.006	-0.0137	0.167	0.1	-0.0574	0.0141	-0.023	0.136	-0.0289	0.0396	-0.0125	-0.0381	0.0087	-0.0391	–	-0.0581	-0.0429	-0.0433	0.927
Cc1c2c(nn1C)CSCc1cc(n(C)n1)CSc1cc(c3ccccc3c1)OCCCc1c(C(=O)O)n(C)c3c-2c(Cl)ccc13 [AZD5991] + CCN(CCO)CCCOc1ccc2c(Nc3cc(CC(=O)Nc4cccc(F)c4)[nH]n3)ncnc2c1 [AZD2811] (first compound max 1 µM, 7x7, partner max 1 µM)	0.0541	0.0626	0.0337	0.0044	0.0635	–	0.0471	0.0738	0.0311	-0.0392	0.0348	0.0454	-0.0143	0.151	-0.0135	0.0705	0.0117	0.0703	0.0141	0.964
Cc1c2c(nn1C)CSCc1cc(n(C)n1)CSc1cc(c3ccccc3c1)OCCCc1c(C(=O)O)n(C)c3c-2c(Cl)ccc13 [AZD5991] + CN(C)CCCOc1ccc(-c2ccc3ncc4c(c3c2)n(C2CCOCC2)c(=O)n4C)cn1 [AZD0156] (first compound max 1 µM, 7x7, partner max 1 µM)	0.0086	-0.0131	-0.0035	-0.006	0.0458	–	-0.0526	-0.0084	-0.136	0.0096	0.0201	0.0167	0.0116	0.027	-0.0413	-0.0702	-0.0089	-0.0027	-0.0465	0.828
CS(=O)(=O)CCNCc1ccc(-c2ccc3ncnc(Nc4ccc(OCc5cccc(F)c5)c(Cl)c4)c3c2)o1 [Lapatinib] + NC1(c2ccc(-c3nc4ccn5c(=O)[nH]nc5c4cc3-c3ccccc3)cc2)CCC1 [MK-2206] (first compound max 10 µM, 7x7, partner max 10 µM)	0.0221	0.005	-0.05	0.0098	-0.0156	–	–	0.0112	0.0688	-0.0733	–	0.0527	0.0116	0.0309	–	–	0.0616	–	-0.0154	0.902
CCc1c2c(nc3ccc(O)cc13)-c1cc3c(c(=O)n1C2)COC(=O)[C@]3(O)CC [SN-38] + O=C(c1cc(Cc2n[nH]c(=O)c3ccccc23)ccc1F)N1CCN(C(=O)C2CC2)CC1 [Olaparib] (first compound max 0.3 µM, 7x7, partner max 10 µM)	0.0198	0.0176	0.0748	0.135	-0.0468	0.0562	0.0555	0.0701	0.0236	0.0029	0.0473	–	0.0215	–	–	–	0.011	-0.0117	0.0927	0.962
